Data published in the CheMixHub viscosity set.

Assay: xn = mol fraction of the nth substance listed

CCOCCO + CS(C)=O
viscosity [mPa·s], 101.33 kPa
Settings | 298.15 K | 303.15 K | 308.15 K | 313.15 K | 318.15 K
x1 = 0.0436 | 2 | 1.8 | 1.66 | 1.52 | 1.38
x1 = 0.0879 | 2 | 1.8 | 1.66 | 1.53 | 1.38
x1 = 0.1327 | 2 | 1.81 | 1.67 | 1.53 | 1.38
x1 = 0.1781 | 2.01 | 1.81 | 1.67 | 1.53 | 1.38
x1 = 0.2242 | 2.01 | 1.82 | 1.68 | 1.54 | 1.38
x1 = 0.2709 | 2.02 | 1.82 | 1.68 | 1.54 | 1.38
x1 = 0.3183 | 2.02 | 1.82 | 1.68 | 1.54 | 1.38
x1 = 0.3663 | 2.03 | 1.83 | 1.69 | 1.54 | 1.38
x1 = 0.415 | 2.02 | 1.83 | 1.68 | 1.54 | 1.38
x1 = 0.4644 | 2.02 | 1.82 | 1.68 | 1.54 | 1.38
x1 = 0.5145 | 2.02 | 1.82 | 1.68 | 1.54 | 1.37
x1 = 0.5653 | 2.01 | 1.81 | 1.67 | 1.53 | 1.37
x1 = 0.6169 | 2.01 | 1.81 | 1.67 | 1.52 | 1.36
x1 = 0.6692 | 1.99 | 1.79 | 1.65 | 1.51 | 1.35
x1 = 0.7223 | 1.98 | 1.78 | 1.64 | 1.49 | 1.33
x1 = 0.7762 | 1.96 | 1.75 | 1.62 | 1.48 | 1.31
x1 = 0.8309 | 1.94 | 1.73 | 1.59 | 1.45 | 1.29
x1 = 0.8864 | 1.92 | 1.71 | 1.56 | 1.43 | 1.27
x1 = 0.9428 | 1.88 | 1.67 | 1.53 | 1.39 | 1.24

CNCCO + O
viscosity [mPa·s]
Settings | 293.15 K | 298.15 K | 303.15 K | 308.15 K | 313.15 K | 318.15 K | 323.15 K
100 kPa, x2 = 0.51 | 26.3 | – | – | – | 9.61 | – | 6.36
101 kPa, x1 = 0.0844 | – | – | 2.541 | 2.165 | 1.868 | 1.625 | –
101 kPa, x1 = 0.1894 | – | – | 6.505 | 5.276 | 4.347 | 3.612 | –
101 kPa, x1 = 0.3001 | – | – | 11.33 | 8.968 | 7.206 | 5.87 | –
101 kPa, x1 = 0.4014 | – | – | 14.46 | 11.33 | 9.042 | 7.311 | –
101 kPa, x1 = 0.448 | – | – | 15.21 | 11.93 | 9.52 | – | –
101 kPa, x1 = 0.5016 | – | – | 15.62 | 12.24 | 9.767 | – | –
101 kPa, x1 = 0.5474 | – | – | 15.45 | 12.14 | 9.666 | – | –
101 kPa, x1 = 0.6004 | – | – | 15.17 | 11.95 | 9.57 | – | –
101 kPa, x1 = 0.7021 | – | – | 13.66 | 10.84 | 8.761 | – | –
101 kPa, x1 = 0.7975 | – | – | 11.89 | 9.564 | 7.81 | – | –
101 kPa, x1 = 0.9048 | – | – | 10.09 | 8.218 | 6.771 | – | –
101.3 kPa, x1 = 0.0125 | 1.234 | 1.086 | 0.963 | 0.863 | 0.778 | 0.705 | 0.644
101.3 kPa, x1 = 0.138 | 6.87 | 5.53 | 4.42 | 3.65 | 3.07 | 2.61 | 2.25
101.3 kPa, x1 = 0.265 | 16.7 | 12.81 | – | 7.99 | 6.46 | 5.31 | 4.41
101.3 kPa, x2 = 0.3167 | 22.4 | 17.24 | 13.51 | 10.76 | 8.699 | 7.129 | 5.914
101.3 kPa, x2 = 0.5104 | 27.48 | 20.95 | 16.28 | 12.83 | 10.25 | 8.308 | 6.794
101.3 kPa, x2 = 0.641 | 22.98 | 17.41 | 13.47 | 10.6 | 8.484 | 6.887 | 5.67
101.3 kPa, x2 = 0.7356 | 17.61 | – | 10.58 | 8.433 | 6.828 | 5.626 | 4.688
101.3 kPa, x2 = 0.8064 | 10.8 | 8.438 | 6.716 | 5.451 | 4.498 | 3.765 | 3.181
101.3 kPa, x2 = 0.8623 | 6.917 | 5.549 | 4.52 | 3.745 | 3.143 | 2.663 | 2.282
101.3 kPa, x2 = 0.9067 | 4.02 | – | 2.789 | 2.363 | 2.02 | 1.75 | 1.536
101.3 kPa, x2 = 0.9434 | 2.462 | 2.089 | 1.794 | 1.557 | 1.364 | 1.206 | 1.076
101.3 kPa, x2 = 0.974 | 1.532 | 1.334 | 1.172 | 1.041 | 0.929 | 0.838 | 0.759
101.33 kPa, x1 = 0.01 | – | 1.089 | 0.97 | – | 0.785 | – | –
101.33 kPa, x1 = 0.0217 | – | 1.366 | 1.198 | – | 0.949 | – | –
101.33 kPa, x1 = 0.0333 | – | 1.692 | 1.469 | – | 1.133 | – | –
101.33 kPa, x1 = 0.0467 | – | 2.146 | 1.836 | – | 1.384 | – | –
101.33 kPa, x1 = 0.0622 | – | 2.759 | 2.315 | – | – | – | –
101.33 kPa, x1 = 0.0772 | – | 3.465 | 2.815 | – | 2.049 | – | –
101.33 kPa, x1 = 0.1167 | – | 5.735 | 4.525 | – | 3.075 | – | –
101.33 kPa, x1 = 0.1656 | – | 9.455 | 7.046 | – | 4.573 | – | –
101.33 kPa, x1 = 0.2308 | – | 14.59 | 10.71 | – | 6.551 | – | –
101.33 kPa, x1 = 0.3169 | – | 19.66 | 14.66 | – | 8.805 | – | –
101.33 kPa, x1 = 0.3893 | – | 21.8 | 16.85 | – | 10.24 | – | –
101.33 kPa, x1 = 0.449 | – | 22.25 | 17.79 | – | 10.9 | – | –
101.33 kPa, x1 = 0.5356 | – | 22.31 | 17.99 | – | 11.21 | – | –
101.33 kPa, x1 = 0.6845 | – | 21.05 | 16.24 | – | 10.16 | – | –
101.33 kPa, x1 = 0.8213 | – | 17.45 | 13.21 | – | 8.401 | – | –
101.33 kPa, x1 = 0.9202 | – | 13.96 | 11 | – | 7.227 | – | –
101.33 kPa, x1 = 0.956 | – | 12.96 | 10.26 | – | 6.823 | – | –
